Here are results for 15 molecules from PMC3973694, “Identification of Odorant-Receptor Interactions by Global Mapping of the Human Odorome” (PLoS ONE, 2014).

In series [1] the target is T1, human PPARγ ligand binding domain (Homo sapiens, UniProt P37231).
T1 sequence (P37231 238-503 limits assumed): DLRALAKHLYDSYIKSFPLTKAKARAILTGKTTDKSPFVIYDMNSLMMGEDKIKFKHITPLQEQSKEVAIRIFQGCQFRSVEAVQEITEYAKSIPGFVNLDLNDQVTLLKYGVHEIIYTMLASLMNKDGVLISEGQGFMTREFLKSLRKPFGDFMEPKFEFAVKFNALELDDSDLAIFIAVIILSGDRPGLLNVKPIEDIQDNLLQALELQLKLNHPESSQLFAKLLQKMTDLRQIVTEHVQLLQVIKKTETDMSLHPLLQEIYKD
In words: Competitive PPARγ binding assay (LanthaScreen TR-FRET). The settings on record: IC50 (inhibition of binding), displacement of fluorescent pan PPAR agonist tracer.
Description: To validate predictions of odorant-PPARγ interactions, IC50 values for respective compounds were determined by competitive binding using time-resolved fluorescence resonance energy transfer (LanthaScreen, Invitrogen) on a Wallac EnVision (PerkinElmer).
To validate predictions of odorant-PPARγ interactions, IC50 values for respective compounds were determined by competitive binding using time-resolved fluorescence resonance energy transfer (LanthaScreen, Invitrogen) on a Wallac EnVision (PerkinElmer). A terbium labeled anti-GST antibody was used to label purified GST-tagged human PPARγ ligand binding domain. Energy transfer from terbium to the tracer, a fluorescent pan PPAR agonist, enabled read-out of each test compound’s ability to displace the tracer. […] An unrestrained sigmoidal (one-binding site) dose-response curve was fitted to each data set by linear regression allowing for determination of IC50 values.

Another series addresses T2, OR51E1 (Homo sapiens, UniProt Q8TCB6).
T2 construct: host or cells: Hana3A cells (HEK293T-derived), co-transfected with pCI-RTP1S and pGlo-22F
T2 sequence (Q8TCB6 1-318): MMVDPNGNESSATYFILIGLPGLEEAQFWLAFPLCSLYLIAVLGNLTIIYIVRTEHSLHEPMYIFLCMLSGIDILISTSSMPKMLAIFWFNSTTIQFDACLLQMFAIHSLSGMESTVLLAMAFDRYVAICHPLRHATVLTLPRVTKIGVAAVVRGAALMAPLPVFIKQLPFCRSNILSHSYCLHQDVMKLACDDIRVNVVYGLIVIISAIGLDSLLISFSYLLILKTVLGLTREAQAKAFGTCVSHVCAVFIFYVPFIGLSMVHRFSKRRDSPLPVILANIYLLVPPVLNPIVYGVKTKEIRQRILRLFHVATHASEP
Description: GloSensor cAMP assay, OR51E1-transfected Hana3A cells. It counts as cell-based. The source says:
(§1) To validate predicted interactions between odorant compounds and ORs or the CB1 receptor, we used the GloSensor cAMP assay from Promega and measured the EC50 values of compounds. This luminescent assay is a sensitive method for measuring Gs and Gi- protein coupled receptor activation by real-time detection of intracellular second messenger cAMP [44]. The protocol is described in the GloSensor cAMP assays paragraph in the Supplementary Methods (S_file).
(§2) All odorants used in these assays were purchased from Sigma-Aldrich (Saint-Quentin Fallavier, France) except celery ketone, which was kindly provided by B. Schilling (Givaudan Schweiz AG, Dübendorf, Switzerland). The stock solutions of odorants (100 mM) were prepared in dimethylsulfoxide (DMSO) and were stored at -20°C. Immediately prior to the assays, the stock solutions of odorants were diluted in the CO2-independent medium (Gibco®, Life Technologies) to the appropriate concentrations. The final concentration of DMSO in wells never exceeded 1% (v/v); this concentration had no effect on GloSensor cAMP assays.
(§3) To validate predicted odorant compound-OR interactions, we used the GloSensor™ cAMP assay (Promega, Charbonnières-Les-Bains, France) to measure EC50 values of compounds. The functional assay was performed in Hana3A cells, a HEK293T-derived cell line optimized for OR expression. Hana3A cells were grown in Minimal Essential Medium (MEM; Life Technologies, Villebon-sur-Yvette, France) supplemented with 10% fetal bovine serum (PAA Laboratories, Les Mureaux, France), 100 μM Eagle’s non-essential amino acids, 2 mM glutamax (Life Technologies) and 1 μg/ml puromycin (Sigma-Aldrich, Saint-Quentin Fallavier, France). The cells were cultured at 37°C in a humidified atmosphere containing 7.3% CO2. Forty-eight hours before performing the GloSensor™ cAMP assay, cells were plated on poly-D-lysine coated 96-well plates (BD Biosciences, Le Pont de Claix, France) at a density of 3x10^4 cells per well. Twenty-four hours later, cells were transiently transfected with the OR expression plasmid (50 ng per well) together with the pCI-RTP1S plasmid and the pGlo™-22F cAMP plasmid (Promega) (10 ng and 100 ng per well, respectively) using Fugene®HD (Promega) according to the manufacturer instructions. In addition, to check that induced activities are OR-dependent, mock transfections were performed by transfecting the cells with the pCI plasmid in place of the OR expression plasmid. […] Luminescence was measured with a Victor 3V plate reader (Perkin Elmer, Courtaboeuf, France) after addition of odorant solutions (10 μl). […]

In series [2] the target is human cannabinoid receptor CB1 (Homo sapiens, UniProt P21554). In words: GloSensor cAMP assay, CB1-transfected HEK293 cells. Format: cell-based. The following applies: for EC50: increase in cAMP production, forskolin-stimulated control cells, mean ± s.e.m., three experiments. On the technique in general: Cyclic AMP is a second messenger, typically raised through Gs and lowered through Gi signalling.
human cannabinoid receptor CB1, sequence (P21554 whole entry): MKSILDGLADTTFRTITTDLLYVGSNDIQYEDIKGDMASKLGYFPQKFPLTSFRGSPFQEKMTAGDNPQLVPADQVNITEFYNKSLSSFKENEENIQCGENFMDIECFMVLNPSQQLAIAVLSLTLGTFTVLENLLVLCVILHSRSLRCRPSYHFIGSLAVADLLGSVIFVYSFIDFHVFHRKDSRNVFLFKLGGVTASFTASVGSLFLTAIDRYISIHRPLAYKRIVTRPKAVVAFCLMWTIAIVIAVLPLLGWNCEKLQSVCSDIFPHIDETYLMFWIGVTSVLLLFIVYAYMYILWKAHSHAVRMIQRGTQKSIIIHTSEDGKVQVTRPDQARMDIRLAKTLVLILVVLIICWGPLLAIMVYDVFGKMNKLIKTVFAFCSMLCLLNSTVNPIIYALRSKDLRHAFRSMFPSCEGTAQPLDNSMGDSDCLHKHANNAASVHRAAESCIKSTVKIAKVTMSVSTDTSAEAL

The target in the next series is T3, OR2W1 (Homo sapiens, UniProt Q9Y3N9).
T3 construct: host or cells: Hana3A cells (HEK293T-derived), co-transfected with pCI-RTP1S and pGlo-22F
T3 sequence (Q9Y3N9 1-320): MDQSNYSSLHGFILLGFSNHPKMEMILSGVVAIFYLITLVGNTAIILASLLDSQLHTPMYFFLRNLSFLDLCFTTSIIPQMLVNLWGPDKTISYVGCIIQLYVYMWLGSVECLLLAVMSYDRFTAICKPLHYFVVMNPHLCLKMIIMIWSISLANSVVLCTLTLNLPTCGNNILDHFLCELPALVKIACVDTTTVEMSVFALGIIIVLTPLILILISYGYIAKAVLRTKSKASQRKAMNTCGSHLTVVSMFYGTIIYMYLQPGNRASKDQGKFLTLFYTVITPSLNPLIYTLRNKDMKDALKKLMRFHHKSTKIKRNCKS
In words: GloSensor cAMP assay, OR2W1-transfected Hana3A cells. It counts as cell-based. The settings on record: activation of OR2W1, Hana3A cells, mean ± s.e.m., at least three experiments.
Source text: as §1, §2
as §3, with “well.” for “well. Twenty-four hours later, cells were transiently transfected with the OR expression plasmid (50 ng per well) together with the pCI-RTP1S plasmid and the pGlo™-22F cAMP plasmid (Promega) (10 ng and 100 ng per well, respectively) using Fugene®HD (Promega) according to the manufacturer instructions. In addition, to check that induced activities are OR-dependent, mock transfections were performed by transfecting the cells with the pCI plasmid in place of the OR expression plasmid.”

The next series concerns the target T4, OR5P3 (Homo sapiens, UniProt Q8WZ94).
T4 construct: host or cells: Hana3A cells (HEK293T-derived), co-transfected with pCI-RTP1S and pGlo-22F
T4 sequence (Q8WZ94 1-311): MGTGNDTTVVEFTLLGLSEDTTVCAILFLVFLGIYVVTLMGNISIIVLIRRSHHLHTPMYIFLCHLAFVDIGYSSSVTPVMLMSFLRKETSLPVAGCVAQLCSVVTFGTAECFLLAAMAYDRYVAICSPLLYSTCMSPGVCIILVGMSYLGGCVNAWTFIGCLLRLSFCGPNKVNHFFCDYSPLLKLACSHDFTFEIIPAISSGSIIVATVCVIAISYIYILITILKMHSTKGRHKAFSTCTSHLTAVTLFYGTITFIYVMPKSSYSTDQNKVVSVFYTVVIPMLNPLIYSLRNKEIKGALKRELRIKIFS
Description: GloSensor cAMP assay, OR5P3-transfected Hana3A cells. It counts as cell-based. The settings on record: activation of OR5P3, Hana3A cells, mean ± s.e.m., at least three experiments.
Source text: as §1, §2
as §3, with “well.” for “well. Twenty-four hours later, cells were transiently transfected with the OR expression plasmid (50 ng per well) together with the pCI-RTP1S plasmid and the pGlo™-22F cAMP plasmid (Promega) (10 ng and 100 ng per well, respectively) using Fugene®HD (Promega) according to the manufacturer instructions. In addition, to check that induced activities are OR-dependent, mock transfections were performed by transfecting the cells with the pCI plasmid in place of the OR expression plasmid.”

The next series has as its system Hana3A cells. In words: Cytotoxic effects seen in the OR GloSensor assay. Format: cell-based. The settings on record: no saturation of the response could be observed. As for the experimental part: as §3, with “instructions.” for “instructions. In addition, to check that induced activities are OR-dependent, mock transfections were performed by transfecting the cells with the pCI plasmid in place of the OR expression plasmid.”

The mark [3] stands for this setting: activation of OR51E1, Hana3A cells, mean ± s.e.m., at least three experiments, read-out: EC50.
Setting [4] is: absence or presence of pertussis toxin.

Where “and” joins values, the source holds several entries; their conditions need not be identical. Identical values can stand only once. Counter-ions that a name gives are not always drawn. Like-named read-outs stand apart in the source and are kept apart here.

The term IC50 denotes the concentration at which inhibition is half-maximal. A lower IC50 goes with greater potency in that assay. The molecule `O=C1C[C@@H](c2ccc(O)cc2)Oc2cc(O)cc(O)c21` [naringenin] yielded an IC50 in series [1] of 7.4 µM.
By EC50 is commonly meant the concentration that produces a half-maximal response. Regarding `CC(C)CC(=O)O` [Isovaleric acid], the EC50 at OR51E1 (setting [3]) is 153 µM.
In turn, `CCC(=O)O` [Propionic acid] showed a fold lower activity on OR51E1 (OR51E1, compared with isovaleric acid and nonanoic acid) of 5 fold. In addition, the EC50 at OR51E1 (setting [3]) was determined as 923 µM.
Consider `CCCCCCC(C)(C)c1cc(O)c2c(c1)OC(C)(C)[C@@H]1CC=C(CO)C[C@@H]21` [HU210, (6aR)-trans-3-(1,1-dimethylheptyl)-6a,7,10,10a,-tetrahydro-1-hydroxy-6,6-dimethyl-6H-dibenzo[b,d]pyran-9-methanol, reference compound], for which the “mode of action at CB1” value in series [2] is on record as “agonists”.
On OR2W1, `CC(C)=CCCC(C)CC=O` (stereo not drawn) [Citronellal] showed an EC50 of 208 µM.
The same measure, in the same setting: then `CC(C)=CCC/C(C)=C/C=O` [Citral], with 129 µM.
Consider `CCCCOC(=O)CC(CC(=O)OCCCC)(OC(C)=O)C(=O)OCCCC` [Tributyl acetyl citrate], for which the “mode of action at CB1” value in series [2] (setting [4]) is recorded as “inverse agonists”. In addition, a half-maximal effect in series [2] (EC50) was put at 122 ± 25.2 µM.
In turn, `CCCCCCCCC(=O)O` [Nonanoic acid, reference compound] yielded an EC50 at OR51E1 of 197 µM.
On to `O=C(OCCc1ccccc1)c1ccccc1O` [phenylethyl salicylate], for which the IC50 in series [1] is 9.2 µM and 14.7 µM.
Regarding `CCCCCCCC(C)=O` [2-Nonanone], the “mode of action at CB1” value in series [2] (setting [4]) is recorded as “inverse agonists”. In series [2], this molecule gave an EC50 of 363 ± 80.7 µM.
With `CCCCCC(=O)OCCc1ccccc1` [2-Phenylethyl hexanoate], the “mode of action at CB1” value in series [2] (setting [4]) was “inverse agonists”. For the same molecule, in series [2], the midpoint of the response, the EC50, lay at 509 ± 8.3 µM.
The molecule `CCCCCCCCO` [1-octanol] registered an EC50 at OR5P3 of 115 µM. Besides, in the series on Hana3A cells, the “concentrations with cytotoxic effects” value is on record as “higher than 10^−3 M”.
For `CCCC1CC(=O)C=C(C)C1` (stereo not drawn) [celery ketone], in that order: 483 µM and “higher than 10^−3 M”.
For `CC(=O)OCc1ccccc1` [Benzyl acetate, reference compound], on OR2W1, it took 34.3 ± 1.17 µM to reach a half-maximal effect (EC50).
In the case of `C=C(C)C1CC=C(C)C(=O)C1` (single isomer, unassigned; (-)) [(-)-carvone, reference compound], at OR5P3, the midpoint of the response, the EC50, lay at 388 µM.
